Measurements published in patent US20260262643A1, “HERBICIDAL BENZOXAZINES” (FMC CORPORATION, priority 2022, published 2026).

Key:
barnyardgrass [1] = experiment: Test C preemergence; type: in vivo, Echinochloa crusgalli; conditions: 0 to 100 scale (0 no effect, 100 complete control); for Plant response rating, Barnyardgrass: Preemergence, 500 g ai/ha, visual rating after 10 days; for Barnyardgrass plant response rating: Test C, preemergence, 125 g ai/ha
Method in brief: (§1)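 Visual injury ratings on a 0–100 scale (100 = complete control) were made against untreated controls 10 days after treatment in the greenhouse. Compounds, formulated with surfactant in non-phytotoxic solvent, were sprayed on soil preemergence or onto one- to two-leaf plants 2–10 cm tall postemergence.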

blackgrass [2] = experiment: Test C preemergence; type: in vivo, Alopecurus myosuroides; conditions: 0 to 100 scale (0 no effect, 100 complete control); for Plant response rating, Blackgrass: Preemergence, 500 g ai/ha, visual rating after 10 days; for Blackgrass plant response rating: Test C, preemergence, 125 g ai/ha
Method in brief: as §1

corn [3] = experiment: Test C preemergence; type: in vivo, Zea mays; conditions: 0 to 100 scale (0 no effect, 100 complete control); for Corn plant response rating: preemergence
Method in brief: as §1

green foxtail [4] = experiment: Test C preemergence; type: in vivo, Setaria viridis; conditions: 0 to 100 scale (0 no effect, 100 complete control); for Foxtail, Green plant response rating: preemergence
Method in brief: as §1

kochia [5] = experiment: Test C preemergence; type: in vivo, Bassia scoparia; conditions: 0 to 100 scale (0 no effect, 100 complete control); for Kochia plant response rating: preemergence
Method in brief: as §1

oat, wild [6] = experiment: Test C preemergence; type: in vivo, Avena fatua; conditions: 0 to 100 scale (0 no effect, 100 complete control); for Oat, Wild plant response rating: preemergence
Method in brief: as §1

pigweed, palmer [7] = experiment: Test C preemergence; type: in vivo, Amaranthus palmeri; conditions: 0 to 100 scale (0 no effect, 100 complete control); for Pigweed, Palmer plant response rating: preemergence
Method in brief: as §1

ragweed [8] = experiment: Test C preemergence; type: in vivo, Ambrosia artemisiifolia; conditions: 0 to 100 scale (0 no effect, 100 complete control); for Ragweed plant response rating: preemergence
Method in brief: as §1

ryegrass, Italian [9] = experiment: Test C preemergence; type: in vivo, Lolium multiflorum; conditions: 0 to 100 scale (0 no effect, 100 complete control); for Ryegrass, Italian plant response rating: preemergence
Method in brief: as §1

soybean [10] = experiment: Test C preemergence; type: in vivo, Glycine max; conditions: 0 to 100 scale (0 no effect, 100 complete control); for Soybean plant response rating: preemergence
Method in brief: as §1

wheat [11] = experiment: Test C preemergence; type: in vivo, Triticum aestivum; conditions: 0 to 100 scale (0 no effect, 100 complete control); for Wheat plant response rating: preemergence
Method in brief: as §1

barnyardgrass [12] = experiment: Test C postemergence; type: in vivo, Echinochloa crusgalli; conditions: 10 days
Method in brief: as §1

blackgrass [13] = experiment: Test C postemergence; type: in vivo, Alopecurus myosuroides; conditions: 10 days
Method in brief: as §1

corn [14] = experiment: Test C postemergence; type: in vivo, Zea mays; conditions: 10 days
Method in brief: as §1

green foxtail [15] = experiment: Test C postemergence; type: in vivo, Setaria viridis; conditions: 10 days
Method in brief: as §1

kochia [16] = experiment: Test C postemergence; type: in vivo, Bassia scoparia; conditions: 10 days
Method in brief: as §1

oat, wild [17] = experiment: Test C postemergence; type: in vivo, Avena fatua; conditions: 10 days
Method in brief: as §1

pigweed, palmer [18] = experiment: Test C postemergence; type: in vivo, Amaranthus palmeri; conditions: 10 days
Method in brief: as §1

ragweed [19] = experiment: Test C postemergence; type: in vivo, Ambrosia artemisiifolia; conditions: 10 days
Method in brief: as §1

ryegrass, Italian [20] = experiment: Test C postemergence; type: in vivo, Lolium multiflorum; conditions: 10 days
Method in brief: as §1

soybean [21] = experiment: Test C postemergence; type: in vivo, Glycine max; conditions: 10 days
Method in brief: as §1

wheat [22] = experiment: Test C postemergence; type: in vivo, Triticum aestivum; conditions: 10 days
Method in brief: as §1

galium = experiment: Test C postemergence; type: in vivo, Galium aparine; conditions: 10 days
Method in brief: as §1

horseweed = experiment: Test C postemergence; type: in vivo, Erigeron canadensis; conditions: 10 days
Method in brief: as §1

barnyardgrass [23] = experiment: Test D flooded paddy test; type: in vivo, Echinochloa crus-galli; conditions: 250 g ai/ha, applied to paddy water, visual rating after 13 to 14 days, scale 0 to 100 (0 no effect, 100 complete control)
Method in brief: (§2)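 Plants at the 2-leaf stage were grown in pots flooded to 3 cm, and compound was applied directly into the paddy water, with depth kept throughout. After 13–14 days in a greenhouse, injury was rated visually against untreated controls on a 0–100 scale (100 = complete control); a dash means not tested.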

ducksalad = experiment: Test D flooded paddy test; type: in vivo, Heteranthera limosa; conditions: 250 g ai/ha, applied to paddy water, visual rating after 13 to 14 days, scale 0 to 100 (0 no effect, 100 complete control)
Method in brief: as §2

rice = experiment: Test D flooded paddy test; type: in vivo, Oryza sativa; conditions: 250 g ai/ha, applied to paddy water, visual rating after 13 to 14 days, scale 0 to 100 (0 no effect, 100 complete control)
Method in brief: as §2

sedge, umbrella = experiment: Test D flooded paddy test; type: in vivo, Cyperus difformis; conditions: 250 g ai/ha, applied to paddy water, visual rating after 13 to 14 days, scale 0 to 100 (0 no effect, 100 complete control)
Method in brief: as §2

[24] = 125 g ai/ha, postemergence, 0 to 100 scale, 0 no effect, 100 complete control
[25] = Postemergence, 500 g ai/ha, visual 0 to 100 scale (0 no effect, 100 complete control)
[26] = Preemergence, 500 g ai/ha, visual rating after 10 days

In the case of `COc1ccc(-n2cnc(C(C)C)n2)cc1C(=O)N1C[C@H](C)Oc2c(F)cccc21` [Compound 269], the “Plant response rating, Barnyardgrass” value (barnyardgrass [1]) is reported as 100, the “Barnyardgrass plant response rating” value (barnyardgrass [1]) is reported as 100 and the “Plant response rating, Blackgrass” value (blackgrass [2]) is reported as 90. For the same compound, the “Blackgrass plant response rating” value (blackgrass [2]) was 90, the “Corn plant response rating” value (corn [3]; 500 g ai/ha) was 90 and the “Corn plant response rating” value (corn [3]; Test C, 125 g ai/ha) was 20. For the same compound, the “Foxtail, Green plant response rating” value (green foxtail [4]; 500 g ai/ha) was 100, the “Foxtail, Green plant response rating” value (green foxtail [4]; Test C, 125 g ai/ha) was 100 and the “Kochia plant response rating” value (kochia [5]; 500 g ai/ha) was 100. For the same compound, the “Kochia plant response rating” value (kochia [5]; Test C, 125 g ai/ha) was 90, the “Oat, Wild plant response rating” value (oat, wild [6]; 500 g ai/ha) was 90 and the “Oat, Wild plant response rating” value (oat, wild [6]; Test C, 125 g ai/ha) was 60. For the same compound, the “Pigweed, Palmer plant response rating” value (pigweed, palmer [7]; 500 g ai/ha) was 100, the “Pigweed, Palmer plant response rating” value (pigweed, palmer [7]; Test C, 125 g ai/ha) was 100 and the “Ragweed plant response rating” value (ragweed [8]; 500 g ai/ha) was 100. The “Ragweed plant response rating” value (ragweed [8]; Test C, 125 g ai/ha) was 100, the “Ryegrass, Italian plant response rating” value (ryegrass, Italian [9]; 500 g ai/ha) was 100 and the “Ryegrass, Italian plant response rating” value (ryegrass, Italian [9]; Test C, 125 g ai/ha) was 100. The “Soybean plant response rating” value (soybean [10]; 500 g ai/ha) was 90, the “Soybean plant response rating” value (soybean [10]; Test C, 125 g ai/ha) was 90 and the “Wheat plant response rating” value (wheat [11]; 500 g ai/ha) was 100. For the same compound, the “Wheat plant response rating” value (wheat [11]; Test C, 125 g ai/ha) was 100, the “Plant response rating, Barnyardgrass” value (barnyardgrass [12]; [24]) was 80 and the “Plant response rating, Barnyardgrass” value (barnyardgrass [12]; [25]) was 100. The “Plant response rating, Blackgrass” value (blackgrass [13]; [24]) was 80, the “Plant response rating, Blackgrass” value (blackgrass [13]; [25]) was 90 and the “Plant response rating, Corn” value (corn [14]; [24]) was 80. For the same compound, the “Plant response rating, Corn” value (corn [14]; [25]) was 100, the “Plant response rating, Foxtail, Green” value (green foxtail [15]; [24]) was 90 and the “Plant response rating, Foxtail, Green” value (green foxtail [15]; [25]) was 90. For the same compound, the “Plant response rating, Kochia” value (kochia [16]; [24]) was 80, the “Plant response rating, Oat, Wild” value (oat, wild [17]; [24]) was 80 and the “Plant response rating, Pigweed, Palmer” value (pigweed, palmer [18]; [24]) was 90. The “Plant response rating, Ragweed” value (ragweed [19]; [24]) was 70, the “Plant response rating, Ryegrass, Italian” value (ryegrass, Italian [20]; [24]) was 100 and the “Plant response rating, Soybean” value (soybean [21]; [24]) was 100. For the same compound, the “Plant response rating, Wheat” value (wheat [22]; [24]) was 80, the “Plant response rating, Galium” value (galium; [24]) was 90 and the “Plant response rating, Galium” value (galium; [25]) was 100. For the same compound, the “Plant response rating, Horseweed” value (horseweed; [24]) was 20, the “Plant response rating, Horseweed” value (horseweed; [25]) was 90 and the “Plant response rating, Barnyardgrass (Flood)” value (barnyardgrass [23]) was 45. The “Plant response rating, Ducksalad (Flood)” value (ducksalad) was 100, the “Plant response rating, Rice (Flood)” value (rice) was 10 and the “Plant response rating, Sedge, Umbrella (Flood)” value (sedge, umbrella) was 98.
With `Cc1cc(-n2cnc(C(C)C)n2)cc(C(=O)N2C[C@H](C)Oc3c(Cl)cccc32)c1C` [Compound 259] the “Plant response rating, Barnyardgrass” value (barnyardgrass [1]) was 90, the “Barnyardgrass plant response rating” value (barnyardgrass [1]) was 30 and the “Plant response rating, Blackgrass” value (blackgrass [2]) was 70. For the same compound, the “Blackgrass plant response rating” value (blackgrass [2]) was 50, the “Plant response rating, Corn” value (corn [3]; [26]) was 30 and the “Corn plant response rating” value (corn [3]; Test C, 125 g ai/ha) was 30. For the same compound, the “Plant response rating, Foxtail, Green” value (green foxtail [4]; [26]) was 100, the “Foxtail, Green plant response rating” value (green foxtail [4]; Test C, 125 g ai/ha) was 100 and the “Plant response rating, Kochia” value (kochia [5]; [26]) was 100. For the same compound, the “Kochia plant response rating” value (kochia [5]; Test C, 125 g ai/ha) was 90, the “Plant response rating, Oat, Wild” value (oat, wild [6]; [26]) was 90 and the “Oat, Wild plant response rating” value (oat, wild [6]; Test C, 125 g ai/ha) was 60. For the same compound, the “Plant response rating, Pigweed, Palmer” value (pigweed, palmer [7]; [26]) was 100, the “Pigweed, Palmer plant response rating” value (pigweed, palmer [7]; Test C, 125 g ai/ha) was 100 and the “Plant response rating, Ragweed” value (ragweed [8]; [26]) was 0. For the same compound, the “Ragweed plant response rating” value (ragweed [8]; Test C, 125 g ai/ha) was 30, the “Plant response rating, Ryegrass, Italian” value (ryegrass, Italian [9]; [26]) was 100 and the “Ryegrass, Italian plant response rating” value (ryegrass, Italian [9]; Test C, 125 g ai/ha) was 90. The “Plant response rating, Soybean” value (soybean [10]; [26]) was 100, the “Soybean plant response rating” value (soybean [10]; Test C, 125 g ai/ha) was 20 and the “Plant response rating, Wheat” value (wheat [11]; [26]) was 90. For the same compound, the “Wheat plant response rating” value (wheat [11]; Test C, 125 g ai/ha) was 50, the “Plant response rating, Barnyardgrass” value (barnyardgrass [12]; [24]) was 20 and the “Plant response rating, Barnyardgrass” value (barnyardgrass [12]; [25]) was 70. The “Plant response rating, Blackgrass” value (blackgrass [13]; [24]) was 70, the “Plant response rating, Blackgrass” value (blackgrass [13]; [25]) was 80 and the “Plant response rating, Corn” value (corn [14]; [24]) was 10. The “Plant response rating, Corn” value (corn [14]; [25]) was 30, the “Plant response rating, Foxtail, Green” value (green foxtail [15]; [24]) was 40 and the “Plant response rating, Foxtail, Green” value (green foxtail [15]; [25]) was 90. The “Plant response rating, Kochia” value (kochia [16]; [24]) was 70, the “Plant response rating, Kochia” value (kochia [16]; [25]) was 80 and the “Plant response rating, Oat, Wild” value (oat, wild [17]; [24]) was 30. The “Plant response rating, Oat, Wild” value (oat, wild [17]; [25]) was 30, the “Plant response rating, Pigweed, Palmer” value (pigweed, palmer [18]; [24]) was 90 and the “Plant response rating, Pigweed, Palmer” value (pigweed, palmer [18]; [25]) was 90. For the same compound, the “Plant response rating, Ragweed” value (ragweed [19]; [24]) was 20, the “Plant response rating, Ragweed” value (ragweed [19]; [25]) was 50 and the “Plant response rating, Ryegrass, Italian” value (ryegrass, Italian [20]; [24]) was 30. For the same compound, the “Plant response rating, Ryegrass, Italian” value (ryegrass, Italian [20]; [25]) was 50, the “Plant response rating, Soybean” value (soybean [21]; [24]) was 100 and the “Plant response rating, Soybean” value (soybean [21]; [25]) was 100. The “Plant response rating, Wheat” value (wheat [22]; [24]) was 20, the “Plant response rating, Wheat” value (wheat [22]; [25]) was 20 and the “Plant response rating, Galium” value (galium; [24]) was 100. The “Plant response rating, Galium” value (galium; [25]) was 100, the “Plant response rating, Horseweed” value (horseweed; [24]) was 0 and the “Plant response rating, Horseweed” value (horseweed; [25]) was 0. For the same compound, the “Plant response rating, Barnyardgrass (Flood)” value (barnyardgrass [23]) was 0, the “Plant response rating, Ducksalad (Flood)” value (ducksalad) was 0 and the “Plant response rating, Rice (Flood)” value (rice) was 0. For the same compound, the “Plant response rating, Sedge, Umbrella (Flood)” value (sedge, umbrella) was 0.
